Species on record: Rattus norvegicus
Assay: DrugMatrix - Regimen: Daily Repeat
Assay type: toxicity, organism-based, Sprague-Dawley
Parameters: regimen Daily Repeat, gender Male, age 6-8 weeks
Conditions: in vivo, po, route oral GAVAGE, […]; for ABSOLUTE BASOPHIL / ABSOLUTE EOSINOPHIL / ABSOLUTE LYMPHOCYTE / ABSOLUTE MONOCYTE / ABSOLUTE SEGMENTED NEUTROPHIL / BASOPHIL / EOSINOPHIL / ERYTHROCYTE COUNT / HEMATOCRIT / HEMOGLOBIN / LEUKOCYTE COUNT / LYMPHOCYTE / MEAN CORPUSCULAR HEMOGLOBIN / MEAN CORPUSCULAR VOLUME / MONOCYTE / NEUTROPHIL / NUCLEATED RED BLOOD CELLS / PLATELET COUNT: tissue Blood; for ALANINE AMINOTRANSFERASE / ALBUMIN / ALKALINE PHOSPHATASE / ASPARTATE AMINOTRANSFERASE / BLOOD UREA NITROGEN / CARBON DIOXIDE / CHLORIDE / CHOLESTEROL / CREATINE PHOSPHOKINASE / CREATININE / GLUCOSE / LACTATE DEHYDROGENASE / LIPASE / PHOSPHORUS / POTASSIUM / SODIUM / TOTAL BILIRUBIN / TOTAL PROTEIN / URIC ACID: tissue Plasma
[1] = 0 mg/kg, 72 h, dose level Control, time 3 day
[2] = 0 mg/kg, 120 h, dose level Control, time 5 day
[3] = 70 mg/kg, 72 h, dose level M1, time 3 day

CCCCCCCCc1ccc(O)cc1 [4-OCTYLPHENOL]
ABSOLUTE BASOPHIL [1]: 0 CELLS/uL
ABSOLUTE EOSINOPHIL [1]: 0 CELLS/uL
ABSOLUTE LYMPHOCYTE [1]: 11091.17 CELLS/uL
ABSOLUTE MONOCYTE [1]: 172.17 CELLS/uL
ABSOLUTE SEGMENTED NEUTROPHIL [1]: 1186.67 CELLS/uL
BASOPHIL [1]: 0%
EOSINOPHIL [1]: 0%
ERYTHROCYTE COUNT [1]: 5.87 x10E6/uL
HEMATOCRIT [1]: 36.87%
HEMOGLOBIN [1]: 14.03 G/DL
LEUKOCYTE COUNT [1]: 12.45 x10E3/uL
LYMPHOCYTE [1]: 88.67%
MEAN CORPUSCULAR HEMOGLOBIN [1]: 23.93 pg
MEAN CORPUSCULAR VOLUME [1]: 62.73 fL
MONOCYTE [1]: 1.5%
NEUTROPHIL [1]: 9.83%
NUCLEATED RED BLOOD CELLS [1]: 0 /100WBC
PLATELET COUNT [1]: 1150.33 x10E3/uL
ALANINE AMINOTRANSFERASE [1]: 67.17 u/L
ALBUMIN [1]: 4.03 G/DL
ALKALINE PHOSPHATASE [1]: 462.5 u/L
ASPARTATE AMINOTRANSFERASE [1]: 88 u/L
BLOOD UREA NITROGEN [1]: 13.17 mg/dL
CARBON DIOXIDE [1]: 29.33 mmol/L
CHLORIDE [1]: 101 MEQ/L
CHOLESTEROL [1]: 69.17 mg/dL
CREATINE PHOSPHOKINASE [1]: 292.5 u/L
CREATININE [1]: 0.17 mg/dL
GLUCOSE [1]: 167.5 mg/dL
LACTATE DEHYDROGENASE [1]: 198.5 u/L
LIPASE [1]: 10.67 u/L
PHOSPHORUS [1]: 11.73 mg/dL
POTASSIUM [1]: 5.91 MEQ/L
SODIUM [1]: 143.3 MEQ/L
TOTAL BILIRUBIN [1]: 0.18 mg/dL
TOTAL PROTEIN [1]: 5.7 G/DL
URIC ACID [1]: 1.3 mg/dL
ABSOLUTE BASOPHIL [2]: 0 CELLS/uL
ABSOLUTE EOSINOPHIL [2]: 64.33 CELLS/uL
ABSOLUTE LYMPHOCYTE [2]: 12494.67 CELLS/uL
ABSOLUTE MONOCYTE [2]: 117 CELLS/uL
ABSOLUTE SEGMENTED NEUTROPHIL [2]: 1340.67 CELLS/uL
BASOPHIL [2]: 0%
EOSINOPHIL [2]: 0.33%
ERYTHROCYTE COUNT [2]: 5.82 x10E6/uL
HEMATOCRIT [2]: 36.97%
HEMOGLOBIN [2]: 14.18 G/DL
LEUKOCYTE COUNT [2]: 14.02 x10E3/uL
LYMPHOCYTE [2]: 89%
MEAN CORPUSCULAR HEMOGLOBIN [2]: 24.42 pg
MEAN CORPUSCULAR VOLUME [2]: 63.52 fL
MONOCYTE [2]: 0.83%
NEUTROPHIL [2]: 9.83%
NUCLEATED RED BLOOD CELLS [2]: 0 /100WBC
PLATELET COUNT [2]: 1097.83 x10E3/uL
ALANINE AMINOTRANSFERASE [2]: 58.83 u/L
ALBUMIN [2]: 3.92 G/DL
ALKALINE PHOSPHATASE [2]: 414.17 u/L
ASPARTATE AMINOTRANSFERASE [2]: 89.17 u/L
BLOOD UREA NITROGEN [2]: 16.83 mg/dL
CARBON DIOXIDE [2]: 29.17 mmol/L
CHLORIDE [2]: 100.33 MEQ/L
CHOLESTEROL [2]: 54.5 mg/dL
CREATINE PHOSPHOKINASE [2]: 386.17 u/L
CREATININE [2]: 0.23 mg/dL
GLUCOSE [2]: 184.17 mg/dL
LACTATE DEHYDROGENASE [2]: 229.17 u/L
LIPASE [2]: 10.83 u/L
PHOSPHORUS [2]: 10.88 mg/dL
POTASSIUM [2]: 5.97 MEQ/L
SODIUM [2]: 142.2 MEQ/L
TOTAL BILIRUBIN [2]: 0.12 mg/dL
TOTAL PROTEIN [2]: 5.63 G/DL
URIC ACID [2]: 1.55 mg/dL
ABSOLUTE BASOPHIL [3]: 0 CELLS/uL
ABSOLUTE EOSINOPHIL [3]: 0 CELLS/uL
ABSOLUTE LYMPHOCYTE [3]: 11265.33 CELLS/uL
ABSOLUTE MONOCYTE [3]: 137 CELLS/uL
ABSOLUTE SEGMENTED NEUTROPHIL [3]: 1431 CELLS/uL
BASOPHIL [3]: 0%
EOSINOPHIL [3]: 0%
ERYTHROCYTE COUNT [3]: 5.68 x10E6/uL
HEMATOCRIT [3]: 36.37%
HEMOGLOBIN [3]: 13.93 G/DL
LEUKOCYTE COUNT [3]: 12.83 x10E3/uL
LYMPHOCYTE [3]: 88%
MEAN CORPUSCULAR HEMOGLOBIN [3]: 24.57 pg
MEAN CORPUSCULAR VOLUME [3]: 64.1 fL
MONOCYTE [3]: 1%
NEUTROPHIL [3]: 11%
NUCLEATED RED BLOOD CELLS [3]: 0 /100WBC
PLATELET COUNT [3]: 1181.67 x10E3/uL
ALANINE AMINOTRANSFERASE [3]: 74 u/L
ALBUMIN [3]: 3.87 G/DL
ALKALINE PHOSPHATASE [3]: 534.33 u/L
ASPARTATE AMINOTRANSFERASE [3]: 88.33 u/L
BLOOD UREA NITROGEN [3]: 15 mg/dL
CARBON DIOXIDE [3]: 27.33 mmol/L
CHLORIDE [3]: 102.33 MEQ/L
CHOLESTEROL [3]: 67 mg/dL
CREATINE PHOSPHOKINASE [3]: 215 u/L
CREATININE [3]: 0.13 mg/dL
GLUCOSE [3]: 152.67 mg/dL
LACTATE DEHYDROGENASE [3]: 181.67 u/L
LIPASE [3]: 10 u/L
PHOSPHORUS [3]: 11.4 mg/dL
POTASSIUM [3]: 5.59 MEQ/L
SODIUM [3]: 144.4 MEQ/L
TOTAL BILIRUBIN [3]: 0.13 mg/dL
TOTAL PROTEIN [3]: 5.53 G/DL
URIC ACID [3]: 1.63 mg/dL

— ChEMBL document CHEMBL3885881, “DrugMatrix”
